Source: patent publication US9708336B2, “Metallo-beta-lactamase inhibitors” (priority 2014, dated 2017)
Where two headings read alike, the source gives them in different places.

What was measured:
NDM-1 = NDM-1 (Klebsiella pneumoniae, UniProt C7C422); assay: biochemical; type: biochemical
Description: Enzyme Activity: Determination of IC50
(§2) The Class B enzyme activities were measured in the presence of the test inhibitor in a fluorescence assay against a commercially available substrate consisting of a cephalosporin core linking 7-hydroxycoumarin to fluorescein (CCF2-FA). The enzyme (NDM-1, IMP-1 or VIM-1) and the substrate were diluted in 100 mM KH2PO4 buffer (pH 7) containing 0.005% Tween-20 and 10 μM ZnSO4. […] The test inhibitor was dissolved in dimethylsulfoxide and diluted 1:50 in the assay, resulting in a final concentration range of 20 uM to 0.00063 uM. In a 384-well microplate, the test inhibitor was incubated with the metallo-β-lactamase enzyme and the substrate for 2 hours at 25° C. Fluorescence at 460 nm following excitation at 405 nm was measured. The IC50 value was determined from semi-logarithmic plots of enzyme inhibition versus inhibitor concentration, with a curve generated using a 4-parameter fit.

IMP-1 = IMP-1 (Serratia marcescens, UniProt P52699); assay: biochemical; type: biochemical; settings: read-out: IMP-1 IC50
Description: Enzyme Activity: Determination of IC50
as §2

VIM-1 = VIM-1 (Pseudomonas aeruginosa (strain ATCC 15692 / DSM 22644 / CIP 104116 / JCM 14847 / LMG 12228 / 1C / PRS 101 / PAO1), UniProt A0A0F7KYQ8); assay: Enzyme activity: determination of IC50, fluorescence assay with CCF2-FA substrate (VIM-1); type: biochemical
[1] = system: Escherichia coli expressing NDM-1 (CLB30016); assay: Antibiotic potentiation activity: synergistic concentration (MITC95) with imipenem, OD600 growth; type: cell-based; settings: for Escherichia coli expressing NDM-1 (CLB 30016) MITC95: concentration giving 95% inhibition of bacterial growth
Procedure, shortened: (§1)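 CLB30005 was precultured on Mueller Hinton agar with 8 ug/ml imipenem, the other strains on trypticase soy agar with 5% sheep blood, overnight at 35 °C. Saline suspensions diluted 1:100 in 1.1× CAMHB received compound and 4 μg/ml imipenem, then 22–24 h at 35 °C before absorbance reading.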

[2] = system: Klebsiella pneumoniae expressing VIM-1 (IHMA599644); assay: as above; type: cell-based; settings: for Klebsiella pneumoniae expressing VIM-1 (IHMA 599644) MITC95: concentration giving 95% inhibition of bacterial growth
Procedure, shortened: as §1

[3] = system: Serratia marcescens expressing IMP-1 (CL5741); assay: as above; type: cell-based; settings: for Serratia marcescens expressing IMP-1 (CL5741) MITC95: concentration giving 95% inhibition of bacterial growth
Procedure, shortened: as §1

[4] = IMP-1 enzyme, CCF2-FA substrate
[5] = VIM-1 enzyme, CCF2-FA substrate, read-out: VIM-1 IC50
[6] = (CLB30016, NDM-1), 95% growth inhibition
[7] = Klebsiella pneumoniae IHMA599644 (VIM-1), 95% growth inhibition
[8] = Serratia marcescens CL5741 (IMP-1), 95% growth inhibition
[9] = NDM-1 enzyme, CCF2-FA fluorescence assay, read-out: NDM-1 IC50
[10] = IMP-1 enzyme, CCF2-FA fluorescence assay
[11] = VIM-1 enzyme, CCF2-FA fluorescence assay, read-out: VIM-1 IC50
[12] = Escherichia coli expressing NDM-1 (CLB30016), 95% growth inhibition
[13] = Klebsiella pneumoniae expressing VIM-1 (IHMA599644), 95% growth inhibition
[14] = Serratia marcescens expressing IMP-1 (CL5741), 95% growth inhibition
[15] = NDM-1 enzyme, CCF2-FA substrate, read-out: NDM-1 IC50
[16] = VIM-1 IC50, VIM-1 enzyme, CCF2-FA fluorescence assay
[17] = fluorescence assay with CCF2-FA substrate, read-out: NDM-1 IC50
[18] = fluorescence assay with CCF2-FA substrate
[19] = fluorescence assay with CCF2-FA substrate, read-out: VIM-1 IC50
[20] = CLB30016 (NDM-1), 95% inhibition of bacterial growth
[21] = IHMA599644 (VIM-1), 95% inhibition of bacterial growth
[22] = CL5741 (IMP-1), 95% inhibition of bacterial growth
[23] = VIM-1 IC50, fluorescence assay with CCF2-FA substrate

Chain of IMP-1 (P52699 whole entry, looked up): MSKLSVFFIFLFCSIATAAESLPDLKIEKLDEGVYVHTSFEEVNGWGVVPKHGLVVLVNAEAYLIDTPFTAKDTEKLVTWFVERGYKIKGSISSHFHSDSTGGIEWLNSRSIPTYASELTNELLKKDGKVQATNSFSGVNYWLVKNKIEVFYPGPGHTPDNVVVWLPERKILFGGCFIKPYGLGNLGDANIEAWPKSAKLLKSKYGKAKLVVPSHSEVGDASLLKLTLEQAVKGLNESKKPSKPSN
Chain of NDM-1 (C7C422 whole entry, looked up, species assumed): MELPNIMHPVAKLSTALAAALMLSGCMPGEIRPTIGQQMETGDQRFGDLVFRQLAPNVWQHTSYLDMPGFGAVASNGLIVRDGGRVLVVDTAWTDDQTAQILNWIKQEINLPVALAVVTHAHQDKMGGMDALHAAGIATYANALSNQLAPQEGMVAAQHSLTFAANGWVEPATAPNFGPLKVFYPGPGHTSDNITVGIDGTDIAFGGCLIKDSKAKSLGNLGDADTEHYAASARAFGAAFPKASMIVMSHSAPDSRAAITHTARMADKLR

Row | Structure (SMILES) | IC50 (IMP-1; [4]) [nM] | Escherichia coli MITC95 [1, 6] [µM] | Klebsiella pneumoniae MITC95 [2, 7] [µM] | Serratia marcescens MITC95 [3, 8] [µM] | IC50 (NDM-1; [9]) [nM] | IC50 (IMP-1; [10]) [nM] | Escherichia coli MITC95 [1, 12] [µM] | Klebsiella pneumoniae MITC95 [2, 13] [µM] | Serratia marcescens MITC95 [3, 14] [µM] | IC50 (NDM-1; [17]) [nM] | IC50 (IMP-1; [18]) [nM] | also measured
1 | N=C(N)NC[C@H]1CC[C@H](c2ccc(C(F)(F)F)c(S(N)(=O)=O)c2-c2nnn[nH]2)CC1 [Example 503, 3-(trans 4-(guanidinomethyl)cyclohexyl)-2-(1H-tetrazol-5-yl)-6-(trifluoromethyl)benzenesulfonamide] | 4.2 | 0.1953 | 0.7813 | 0.1953 |  |  |  |  |  |  |  | IC50 (NDM-1): 1.14 nM; IC50 (VIM-1; [5]): 0.183 nM
2 | NS(=O)(=O)c1cccc(-c2ccc(CNCCc3cn[nH]c3)cc2)c1-c1nnn[nH]1 [Example 385, 4′-({[2-(1H-pyrazol-4-yl)ethyl]amino}methyl)-2-(1H-tetrazol-5-yl)biphenyl-3-sulfonamide] |  |  |  |  | 12.5 | 499 | 1.563 | 50 | 6.25 |  |  | IC50 (VIM-1; [11]): 357 nM
3 | NS(=O)(=O)c1c(C(F)(F)F)ccc(N2CCCC(CO)C2)c1-c1nnn[nH]1 (stereo not drawn) [Example 659, 3-[3-(hydroxymethyl)piperidin-1-yl]-2-(1H-tetrazol-5-yl)-6-(trifluoromethyl)benzenesulfonamide] | 36.3 | 15.63 | 25 | 2.344 |  |  |  |  |  |  |  | IC50 (NDM-1; [15]): 18.8 nM; IC50 (VIM-1; [5]): 6.4 nM
4 | NS(=O)(=O)c1c(Cl)ccc(-c2ccc(C3CCNCC3)cc2)c1-c1nn[nH]n1 [Example 276, 4-chloro-4′-(piperidin-4-yl)-2-(2H-tetrazol-5-yl)-[1,1′-biphenyl]-3-sulfonamide] |  |  |  |  | 5.51 | 8.75 | 0.7813 | 1.563 | 0.3906 |  |  | IC50 (VIM-1; [16]): 3.38 nM
5 | NC(=O)C1CCCN(c2ccc(C(F)(F)F)c(S(N)(=O)=O)c2-c2nnn[nH]2)C1 (stereo not drawn) [Example 662, 1-[3-sulfamoyl-2-(1H-tetrazol-5-yl)-4-(trifluoromethyl)phenyl]piperidine-3-carboxamide] | 37.1 | 6.25 | 12.5 | 1.953 |  |  |  |  |  |  |  | IC50 (NDM-1; [15]): 11.6 nM; IC50 (VIM-1; [5]): 4.58 nM
6 | CC(NCc1ccc(-c2cccc(S(N)(=O)=O)c2-c2nnn[nH]2)cc1)C(=O)O (stereo not drawn) [Example 358, N-{[3′-sulfamoyl-2′-(1H-tetrazol-5-yl)biphenyl-4-yl]methyl}alanine] |  |  |  |  | 32.8 | 288 | 3.125 | 75 | 4.688 |  |  | IC50 (VIM-1; [16]): 387 nM
7 | NS(=O)(=O)c1cccc(-c2ccc(CNCCc3cc[nH]n3)cc2)c1-c1nnn[nH]1 [Example 389, 4′-({[2-(1H-pyrazol-3-yl)ethyl]amino}methyl)-2-(1H-tetrazol-5-yl)biphenyl-3-sulfonamide] |  |  |  |  | 3.33 | 64 | 1.563 | 75 | 2.344 |  |  | IC50 (VIM-1; [11]): 146 nM
8 | NC1CC(N2CC(c3ccc(-c4ccc(C(F)(F)F)c(S(N)(=O)=O)c4-c4nnn[nH]4)cc3)C2)C1 (stereo not drawn) [Example 807, 4′-[1-(3-aminocyclobutyl)azetidin-3-yl]-2-(1H-tetrazol-5-yl)-4-(trifluuromethyl)biphenyl-3-sulfonamide] |  |  |  |  |  |  |  |  |  | 3.97 | 5.16 | IC50 (VIM-1; [19]): 19.9 nM; Escherichia coli MITC95 [1, 20]: 1.563 µM; Klebsiella pneumoniae MITC95 [2, 21]: 25 µM; Serratia marcescens MITC95 [3, 22]: 6.25 µM
9 | Nc1ccc2cc(-c3cccc(S(N)(=O)=O)c3-c3nnn[nH]3)ccc2n1 [Example 403, 3-(2-amino-6-quinolyl)-2-(1H-tetrazol-5-yl)benzenesulfonamide] |  |  |  |  | 2.34 | 184 | 0.125 | 6.25 | 4.688 |  |  | IC50 (VIM-1; [11]): 15.4 nM
10 | NS(=O)(=O)c1cccc(-c2ccc(CN3CCC3C(=O)O)cc2)c1-c1nnn[nH]1 (stereo not drawn) [Example 378, 1-{[3′-sulfamoyl-2′-(1H-tetrazol-5-yl)biphenyl-4-yl]methyl}azetidine-2-carboxylic acid] |  |  |  |  | 24.6 | 262 | 3.125 | 50 | 6.25 |  |  | IC50 (VIM-1; [11]): 407 nM
11 | NS(=O)(=O)c1c(C(F)(F)F)ccc(-c2ccc(CN3CCNCC3)cc2)c1-c1nnn[nH]1 [Example 718, 4′-(piperazin-1-ylmethyl)-2-(1H-tetrazol-5-yl)-4-(trifluoromethyl)biphenyl-3-sulfonamide] | 2.4 | 12.5 | 25 | 6.25 |  |  |  |  |  |  |  | IC50 (NDM-1; [15]): 1.51 nM; IC50 (VIM-1; [5]): 1.73 nM
12 | NC1CCC(c2ccc(CC3CCNCC3)c(S(N)(=O)=O)c2-c2nn[nH]n2)CC1 (stereo not drawn) [Example 839, 3-(4-aminocyclohexyl)-6-(piperidin-4-ylmethyl)-2-(2H-tetrazol-5-yl)benzenesulfonamide] |  |  |  |  |  |  |  |  |  | 56.9 | 359 | IC50 (VIM-1; [19]): 19.3 nM; Escherichia coli MITC95 [1, 20]: 3.125 µM; Klebsiella pneumoniae MITC95 [2, 21]: 6.25 µM; Serratia marcescens MITC95 [3, 22]: 6.25 µM
13 | Cc1ccc(-c2ccc(Cl)c(S(N)(=O)=O)c2-c2nn[nH]n2)cc1 [Example 263, 4-chloro-4′-methyl-2-(2H-tetrazol-5-yl)-[1,1′-biphenyl]-3-sulfonamide] |  |  |  |  | 3.27 | 21 | 0.7813 | 18.75 | 0.7813 |  |  | IC50 (VIM-1; [11]): 11.5 nM
14 | NC1CCC(c2cccc(S(N)(=O)=O)c2-c2nn[nH]n2)CC1 (stereo not drawn) [Example 168, 3-(4-Aminocyclohexyl)-2-(2H-tetrazol-5-yl)benzenesulfonamide] |  |  |  |  |  |  |  |  |  | 39.4 | 865 | IC50 (VIM-1; [19]): 50.3 nM; Escherichia coli expressing NDM-1 (CLB 30016) MITC95 [1]: 0.25 µM; Klebsiella pneumoniae expressing VIM-1 (IHMA 599644) MITC95 [2]: 2.172 µM; Serratia marcescens expressing IMP-1 (CL5741) MITC95 [3]: 6.25 µM
15 | NS(=O)(=O)c1c(C(F)(F)F)ccc([C@H]2CC[C@H](NC3CC4CNCCN4C3)CC2)c1-c1nnn[nH]1 (stereo partly drawn) [Example 686, 3-[4-(octahydropyrrolo[1,2-a]pyrazin-7-ylamino)cyclohexyl]-2-(1H-tetrazol-5-yl)-6-(trifluoromethyl)benzene sulfonamide] | 31.7 | 1.563 | 12.5 | 6.25 |  |  |  |  |  |  |  | IC50 (NDM-1; [15]): 9.53 nM; IC50 (VIM-1; VIM-1 IC50, VIM-1 enzyme, CCF2-FA substrate): 15.7 nM
16 | NS(=O)(=O)c1cccc(-c2cnc3ccc(Cl)nn23)c1-c1nnn[nH]1 [Example 652, 3-(6-chloroimidazo[1,2-b]pyridazin-3-yl)-2-(1H-tetrazol-5-yl)benzenesulfonamide] | 167 | 1.563 | 25 | 12.5 |  |  |  |  |  |  |  | IC50 (NDM-1; [15]): 5.37 nM; IC50 (VIM-1; [5]): 27.4 nM
17 | CN(Cc1ccccc1)c1ccnc(S(N)(=O)=O)c1-c1nnn[nH]1 [Example 229, 4-[benzyl(methyl)amino]-3-(1H-tetrazol-5-yl)pyridine-2-sulfonamide] |  |  |  |  |  |  |  |  |  | 204 | 466 | IC50 (VIM-1; [23]): 2.22 nM; Escherichia coli expressing NDM-1 (CLB 30016) MITC95 [1]: 12.5 µM; Klebsiella pneumoniae expressing VIM-1 (IHMA 599644) MITC95 [2]: 6.25 µM; Serratia marcescens expressing IMP-1 (CL5741) MITC95 [3]: 50 µM
18 | CNC1CC(N2CC(c3ccc(-c4ccc(C(F)(F)F)c(S(N)(=O)=O)c4-c4nnn[nH]4)cc3)C2)C1 (stereo not drawn) [Example 815, 4′-{1-[3-(methylamino)cyclobutyl]azetidin-3-yl}-2-(1H-tetrazol-5-yl)-4-(trifluoromethyl)biphenyl-3-sulfonamide] |  |  |  |  |  |  |  |  |  | 4.84 | 6.01 | IC50 (VIM-1; [19]): 18 nM; Escherichia coli MITC95 [1, 20]: 1.563 µM; Klebsiella pneumoniae MITC95 [2, 21]: 100 µM; Serratia marcescens MITC95 [3, 22]: 3.125 µM
19 | NS(=O)(=O)c1nccc(N2CCC(c3ncc[nH]3)CC2)c1-c1nnn[nH]1 [Example 240, 4-[4-(1H-imidazol-2-yl)piperidin-1-yl]-3-(1H-tetrazol-5-yl)pyridine-2-sulfonamide] |  |  |  |  |  |  |  |  |  | 418 | 3410 | IC50 (VIM-1; [23]): 938 nM; Escherichia coli expressing NDM-1 (CLB 30016) MITC95 [1]: 1.172 µM; Klebsiella pneumoniae expressing VIM-1 (IHMA 599644) MITC95 [2]: 25 µM; Serratia marcescens expressing IMP-1 (CL5741) MITC95 [3]: 37.5 µM
